From the supplement of paper PMC10307832

Assays:
Test in all cases: relative viability (nuclei count vs DMSO), 5 days (fraction); higher = more cells survive
Halofuginone + Foretinib = compound: O=C(C[C@H]1NCCC[C@@H]1O)Cn1cnc2cc(Br)c(Cl)cc2c1=O (racemic) [Halofuginone] + COc1cc2c(Oc3ccc(NC(=O)C4(C(=O)Nc5ccc(F)cc5)CC4)cc3F)ccnc2cc1OCCCN1CCOCC1 [Foretinib] (partner 0.25 µM)
How it was run: (§1)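 Relative viability is defined as nuclei in treated wells over nuclei in vehicle wells. Duplicate plates were run and medians reported. Lung cancer cell lines in 1536-well plates were dosed by pin tool one day after seeding, with one drug or with a fixed anchor-drug dose plus five library-drug doses (not always all listed) in √10 steps, and nuclei were counted after 5 days.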

Decitabine + Phenformin = compound: Nc1ncn([C@H]2C[C@H](O)[C@@H](CO)O2)c(=O)n1 [Decitabine] + N=C(N)NC(=N)NCCc1ccccc1 [Phenformin] (partner 250 µM)
How it was run: as §1

Cediranib + Palbociclib = compound: COc1cc2c(Oc3ccc4[nH]c(C)cc4c3F)ncnc2cc1OCCCN1CCCC1 [Cediranib] + CC(=O)c1c(C)c2cnc(Nc3ccc(N4CCNCC4)cn3)nc2n(C2CCCC2)c1=O [Palbociclib] (partner 0.5 µM)
How it was run: as §1

[1] = compound: O=C(C[C@H]1NCCC[C@@H]1O)Cn1cnc2cc(Br)c(Cl)cc2c1=O (racemic) [Halofuginone] + Nc1nc2[nH]cc(CCc3ccc(C(=O)N[C@@H](CCC(=O)O)C(=O)O)cc3)c2c(=O)[nH]1 [Pemetrexed] (partner 0.2 µM)
How it was run: as §1

Cell Line	relative viability (Halofuginone + Foretinib; first compound 0.001 µM)	relative viability (Halofuginone + Foretinib; first compound 0.003162 µM)	relative viability (Halofuginone + Foretinib; first compound 0.01 µM)	relative viability (Halofuginone + Foretinib; first compound 0.03162 µM)	relative viability (Halofuginone + Foretinib; first compound 0.1 µM)	relative viability (Decitabine + Phenformin; first compound 0.1265 µM)	relative viability (Decitabine + Phenformin; first compound 0.4 µM)	relative viability (Decitabine + Phenformin; first compound 1.265 µM)	relative viability (Decitabine + Phenformin; first compound 4 µM)	relative viability (Cediranib + Palbociclib; first compound 0.04 µM)	relative viability (Cediranib + Palbociclib; first compound 0.4 µM)	relative viability (Cediranib + Palbociclib; first compound 1.265 µM)	relative viability (Cediranib + Palbociclib; first compound 4 µM)	relative viability ([1]; first compound 0.001 µM)	relative viability ([1]; first compound 0.003162 µM)	relative viability ([1]; first compound 0.01 µM)	relative viability ([1]; first compound 0.03162 µM)	relative viability ([1]; first compound 0.1 µM)	relative viability (Decitabine + Phenformin; first compound 0.04 µM)	relative viability (Cediranib + Palbociclib; first compound 0.1265 µM)
EPLC-272H	0.792	0.742	0.736	0.78	0.72	0.26	0.0458	0.223	0.199	0.297	0.312	0.327	0.318	0.42	0.359	0.308	0.345	0.358		
LXF-289	1.01	1.04	0.927	1.01	0.922	0.371	0.263	0.26	0.228	0.617	0.569	0.566	0.609	0.913	0.972	0.849	0.864	0.788	0.431	
COR-L23	1	0.996	1.02	0.904	0.353	0.311	0.303	0.253	0.253	0.282	0.279	0.353	0.263	0.212	0.19	0.2	0.192	0.183	0.362	0.349
RERF-LC-KJ	0.902	1.01	0.967	0.853	0.815	0.386		0.402	0.333	1.15	1	1.15	1.13	0.452	0.45	0.434	0.454	0.461	0.459	1.02
NCI-H1755	0.943	0.955	0.861	0.895	0.877	0.629	0.43	0.442	0.465	0.441	0.436	0.441	0.422	0.418	0.469	0.413	0.423	0.484	0.625	0.429
PC-14	0.937	0.977	0.859	0.903	0.8	0.339	0.128	0.126	0.163	0.601	0.487	0.439	0.328	0.153	0.148	0.143	0.163	0.164	0.114	0.627
NCI-H322M	0.896	0.948	0.913	0.833	0.374	0.745	0.6	0.478	0.549	0.46	0.464	0.492	0.524	0.633	0.63	0.554	0.586	0.398	0.647	0.589
NCI-H1666	0.979	0.934	1.01	0.952	0.936	0.568	0.522	0.506	0.593	0.681	0.636	0.644	0.658	0.883	0.78	0.904	0.878	0.806	0.617	0.61
A-427	0.979	1.03	1.02	1.06	0.915	0.265	0.19	0.18	0.164	0.524	0.481	0.458	0.502	1	1.03	0.945	0.946	0.887	0.239	
NCI-H2342	1.22	0.984	0.971	0.963	1.08	0.732	0.511	0.514	0.535	0.562	0.451	0.534	0.479	0.801	0.702	0.774	0.76	0.727	0.597	0.52
NCI-H1651	0.91	0.814	0.696	0.519	0.416	0.345	0.383	0.287	0.318	0.534	0.499	0.523	0.527	0.56	0.489	0.568	0.572	0.592	0.331	0.551
NCI-H1793	0.814	0.74	0.538	0.67	0.429	0.411	0.336	0.305	0.244	0.306	0.3	0.271	0.311	0.906	0.734	0.7	0.843	0.515	0.384	0.277
NCI-H520	0.808	0.798	0.767	0.58	0.424	0.347	0.37	0.328	0.288	0.262	0.175	0.162	0.179	0.726	0.662	0.784	0.611	0.246	0.42	0.22
201T	1.09	1.09	0.931	0.558	0.193	0.454	0.518		0.409	0.368	0.352	0.372	0.341	0.31	0.329	0.346	0.311	0.313	0.42	0.429
NCI-H460	1.01	1.08	0.899	0.942	0.113	0.473	0.472	0.223	0.157	0.196	0.21	0.161	0.202	0.0584	0.0659	0.0638	0.0536	0.0574	0.473	0.175
HARA	0.997	0.954	0.934	0.896	0.493	0.36	0.236	0.148	0.125	0.249	0.298	0.301	0.211	0.228	0.231	0.283	0.247	0.222	0.307	0.32
